# Reference: ChEMBL document CHEMBL4406836, “The design of a cell-selective fowlicidin-1-derived peptide with both antimicrobial and anti-inflammatory activities” (Eur J Med Chem, 2019)
# Active and inactive are the calls of the source. The rule behind the calls is not given here.
# Legend:
# RAW264.7 [1] = test: Antiinflammatory activity in mouse RAW264.7 cells assessed as reduction in LPS-induced iNOS gene expression at 4 uM incubated for 3 hrs by qRT-PCR analysis; format: functional, cell-based
# Pseudomonas aeruginosa [2] = test: Antibacterial activity against multidrug-resistant Pseudomonas aeruginosa CCARM 2095 assessed as reduction in bacterial growth at 4 uM incubated for 72 hrs in presence of oxacillin by spectrophotometry; format: functional; settings: CCARM 2095, 72 h
# Staphylococcus aureus [3] = test: Antibacterial activity against methicillin-resistant Staphylococcus aureus CCARM 3089 assessed as reduction in bacterial growth at 8 uM incubated for 72 hrs in presence of ciprofloxacin by spectrophotometry; format: functional; settings: CCARM 3089, 72 h
# Staphylococcus aureus [4] = test: Antibacterial activity against methicillin-resistant Staphylococcus aureus CCARM 3089 assessed as reduction in bacterial growth at 8 uM incubated for 72 hrs in presence of oxacillin by spectrophotometry; format: functional; settings: CCARM 3089, 72 h
# [5] = test system: Staphylococcus epidermidis; test: Antibacterial activity against Staphylococcus epidermidis KCTC 1917 assessed as reduction in bacterial growth incubated for 18 hrs by spectrophotometry based microtiter broth dilution method; format: functional; settings: KCTC 1917, 18 h
# Erythrocyte = test: Hemolytic activity in sheep RBC assessed as minimal hemolytic concentration causing 10% hemolysis incubated for 2 hrs by ELISA; format: ADME, cell-based, Ovis aries
# RAW264.7 [6] = test: Cytotoxicity against mouse RAW264.7 cells assessed as reduction in cell viability at upto 16 uM incubated for 48 hrs by MTT assay; format: cell-based; settings: raw264.7, 48 h
# RAW264.7 [7] = test: Antiinflammatory activity in mouse RAW264.7 cells assessed as reduction in LPS-induced NO production at 4 uM incubated for 24 hrs by Griess reagent based assay relative to control; format: functional; settings: RAW264.7, 24 h
# RAW264.7 [8] = test: Antiinflammatory activity in mouse RAW264.7 cells assessed as reduction in LPS-induced NO production at 10 uM incubated for 48 hrs by Griess reagent based assay; format: functional, cell-based
# Staphylococcus aureus [9] = test: Potency index, ratio of MIC of LL-37 to MIC of compound for antibacterial activity against methicillin-resistant Staphylococcus aureus CCARM 3090 assessed as reduction in bacterial growth incubated for 18 hrs by spectrophotometry based microtiter broth dilution method; format: functional
# Staphylococcus aureus [10] = test: Potency index, ratio of MIC of LL-37 to MIC of compound for antibacterial activity against methicillin-resistant Staphylococcus aureus CCARM 3095 assessed as reduction in bacterial growth incubated for 18 hrs by spectrophotometry based microtiter broth dilution method; format: functional
# Pseudomonas aeruginosa [11] = test: Potency index, ratio of MIC of LL-37 to MIC of compound for antibacterial activity against multidrug-resistant Pseudomonas aeruginosa CCARM 2109 assessed as reduction in bacterial growth incubated for 18 hrs by spectrophotometry based microtiter broth dilution method; format: functional
# Enterococcus faecium = test: Potency index, ratio of MIC of LL-37 to MIC of compound for antibacterial activity against vancomycin-resistant Enterococcus faecium ATCC 51559 assessed as reduction in bacterial growth incubated for 18 hrs by spectrophotometry based microtiter broth dilution method; format: functional
# Staphylococcus aureus [12] = test: Potency index, ratio of MIC of melittin to MIC of compound for antibacterial activity against methicillin-resistant Staphylococcus aureus CCARM 3089 assessed as reduction in bacterial growth incubated for 18 hrs by spectrophotometry based microtiter broth dilution method; format: functional
# Escherichia coli [13] = test: Antibacterial activity against Escherichia coli KCTC 1682 assessed as reduction in bacterial growth incubated for 18 hrs in presence of 4.5 mM KCl by spectrophotometry based microtiter broth dilution method; format: functional; settings: KCTC 1682, 18 h
# Escherichia coli [14] = test: Antibacterial activity against Escherichia coli KCTC 1682 assessed as reduction in bacterial growth incubated for 18 hrs in presence of 1 mM MgCl2 by spectrophotometry based microtiter broth dilution method; format: functional; settings: KCTC 1682, 18 h
# Escherichia coli [15] = test: Antibacterial activity against Escherichia coli KCTC 1682 assessed as reduction in bacterial growth incubated for 18 hrs in presence of 4 uM FeCl3 by spectrophotometry based microtiter broth dilution method; format: functional; settings: KCTC 1682, 18 h
# Staphylococcus aureus [16] = test: Antibacterial activity against Staphylococcus aureus KCTC 1621 assessed as reduction in bacterial growth incubated for 18 hrs in presence of 1 mM MgCl2 by spectrophotometry based microtiter broth dilution method; format: functional; settings: KCTC 1621, 18 h
# Staphylococcus aureus [17] = test: Antibacterial activity against Staphylococcus aureus KCTC 1621 assessed as reduction in bacterial growth incubated for 18 hrs in presence of 2.5 mM CaCl2 by spectrophotometry based microtiter broth dilution method; format: functional; settings: KCTC 1621, 18 h
# Staphylococcus aureus [18] = test: Antibacterial activity against Staphylococcus aureus KCTC 1621 assessed as reduction in bacterial growth incubated for 18 hrs in presence of […] by spectrophotometry based microtiter broth dilution method; format: functional; settings: KCTC 1621, 18 h
# Staphylococcus aureus [19] = test: Antibacterial activity against Staphylococcus aureus KCTC 1621 assessed as reduction in bacterial growth incubated for 18 hrs in presence of 20% human serum by spectrophotometry based microtiter broth dilution method; format: functional; settings: KCTC 1621, 18 h
# Staphylococcus aureus [20] = test: Antibacterial activity against methicillin-resistant Staphylococcus aureus CCARM 3089 assessed as reduction in bacterial growth at 4 uM incubated for 72 hrs in presence of ciprofloxacin by spectrophotometry; format: functional; settings: CCARM 3089, 72 h
# Staphylococcus aureus [21] = test: Antibacterial activity against methicillin-resistant Staphylococcus aureus CCARM 3089 assessed as reduction in bacterial growth at 4 uM incubated for 72 hrs in presence of oxacillin by spectrophotometry; format: functional; settings: CCARM 3089, 72 h
compound,measurement,setting,value
CC[C@H](C)[C@H](NC(=O)[C@H](CCCCN)NC(=O)[C@H](CCC(=O)O)NC(=O)[C@H](CCCCN)NC(=O)[C@H](CO)NC(=O)[C@H](CCCCN)NC(=O)[C@H](CCCNC(=N)N)NC(=O)[C@H](Cc1ccccc1)NC(=O)[C@H](Cc1ccccc1)NC(=O)[C@H](CC(=O)O)NC(=O)CNC(=O)[C@H](CC(C)C)NC(=O)[C@@H](N)CC(C)C)C(=O)NCC(=O)N[C@@H](CCCCN)C(=O)N[C@@H](CCC(=O)O)C(=O)N[C@@H](Cc1ccccc1)C(=O)N[C@@H](CCCCN)C(=O)N[C@@H](CCCNC(=N)N)C(=O)N[C@H](C(=O)N[C@H](C(=O)N[C@@H](CCC(N)=O)C(=O)N[C@@H](CCCNC(=N)N)C(=O)N[C@H](C(=O)N[C@@H](CCCCN)C(=O)N[C@@H](CC(=O)O)C(=O)N[C@@H](Cc1ccccc1)C(=O)N[C@@H](CC(C)C)C(=O)N[C@@H](CCCNC(=N)N)C(=O)N[C@@H](CC(N)=O)C(=O)N[C@@H](CC(C)C)C(=O)N[C@H](C(=O)N1CCC[C@H]1C(=O)N[C@@H](CCCNC(=N)N)C(=O)N[C@H](C(=O)N[C@@H](CCC(=O)O)C(=O)N[C@@H](CO)C(=O)O)[C@@H](C)O)C(C)C)[C@@H](C)CC)C(C)C)[C@@H](C)CC [CATHELICIDIN],inhibition,RAW264.7 [1],Active
same,MIC,Pseudomonas aeruginosa [2],4 µM
same,MIC,Staphylococcus aureus [3],8 µM
same,MIC,Staphylococcus aureus [4],2 µM
H-LVIRWVRAGYKLYRAIKKK-NH2,MIC,[5],4 µM
same,MHC10,Erythrocyte,105 µM
same,Activity,RAW264.7 [6],Non-Toxic
same,inhibition at 4 µM,RAW264.7 [7],94.2%
same,Activity,RAW264.7 [8],Active
same,Ratio,Staphylococcus aureus [9],2 - 8
same,Ratio,Staphylococcus aureus [10],2 - 8
same,Ratio,Pseudomonas aeruginosa [11],2 - 8
same,Ratio,Enterococcus faecium,2 - 8
same,Ratio,Staphylococcus aureus [12],2 - 8
same,MIC,Escherichia coli [13],4 µM
same,MIC,Escherichia coli [14],4 µM
same,MIC,Escherichia coli [15],4 µM
same,MIC,Staphylococcus aureus [16],4 µM
same,MIC,Staphylococcus aureus [17],2 µM
same,MIC,Staphylococcus aureus [18],4 µM
same,MIC,Staphylococcus aureus [19],4 µM
same,MIC,Staphylococcus aureus [20],0.5 µM
same,MIC,Staphylococcus aureus [21],1 µM
